Results reported in ChEMBL document CHEMBL2074523, “Hepatic uptake of cholecystokinin octapeptide by organic anion-transporting polypeptides OATP4 and OATP8 of rat and human liver” (Gastroenterology, 2001).

T1: Solute carrier organic anion transporter family member 1B3 (OATP1B3) (Homo sapiens, UniProt Q9NPD5)
T1 sequence (Q9NPD5 whole entry): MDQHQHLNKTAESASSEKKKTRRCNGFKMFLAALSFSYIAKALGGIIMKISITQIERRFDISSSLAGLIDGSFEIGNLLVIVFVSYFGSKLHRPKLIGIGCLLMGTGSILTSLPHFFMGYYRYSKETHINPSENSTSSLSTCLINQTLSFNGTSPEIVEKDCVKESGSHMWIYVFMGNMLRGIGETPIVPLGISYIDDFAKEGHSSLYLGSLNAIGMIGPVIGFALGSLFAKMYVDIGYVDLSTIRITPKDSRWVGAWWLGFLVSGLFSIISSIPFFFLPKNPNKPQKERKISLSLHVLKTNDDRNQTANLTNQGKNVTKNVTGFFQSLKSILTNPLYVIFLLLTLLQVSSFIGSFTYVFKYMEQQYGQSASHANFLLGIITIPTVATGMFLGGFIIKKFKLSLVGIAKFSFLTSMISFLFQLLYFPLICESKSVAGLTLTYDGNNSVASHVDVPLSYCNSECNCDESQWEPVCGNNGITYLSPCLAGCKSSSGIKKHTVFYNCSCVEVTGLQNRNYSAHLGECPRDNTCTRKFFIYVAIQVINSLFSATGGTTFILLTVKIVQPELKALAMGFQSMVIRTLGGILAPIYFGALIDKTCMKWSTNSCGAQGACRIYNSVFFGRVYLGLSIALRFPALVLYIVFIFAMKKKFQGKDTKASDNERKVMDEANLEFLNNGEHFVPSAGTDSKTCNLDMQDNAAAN


Tests used:
[1] = biological target: T1, Solute carrier organic anion transporter family member 1B3 (OATP1B3); assay: (§1) TP_TRANSPORTER: uptake in Xenopus laevis oocytes; settings: Xenopus laevis oocytes expressing OATP1B3 (SLCO1B3)
[2] = substrate: CSCC[C@H](NC(=O)[C@H](Cc1ccc(OS(=O)(=O)O)cc1)NC(=O)[C@@H](N)CC(=O)O)C(=O)NCC(=O)N[C@@H](Cc1c[nH]c2ccccc12)C(=O)N[C@@H](CCSC)C(=O)N[C@@H](CC(=O)O)C(=O)N[C@@H](Cc1ccccc1)C(N)=O; assay: as §1; format: functional, cell-based, Oocyte

Molecule | Km [1] [µM] | Km [2] [µM]
CSCC[C@H](NC(=O)[C@H](Cc1ccc(OS(=O)(=O)O)cc1)NC(=O)[C@@H](N)CC(=O)O)C(=O)NCC(=O)N[C@@H](Cc1c[nH]c2ccccc12)C(=O)N[C@@H](CCSC)C(=O)N[C@@H](CC(=O)O)C(=O)N[C@@H](Cc1ccccc1)C(N)=O [SINCALIDE] | 11.1 | 
Solute carrier organic anion transporter family member 1B2 (Rattus norvegicus) (protein) MDHTQQSRKAAEAQPSRSKQTRFCDGFKLFLAALSFSYICKALGGVVMKSSITQIERRFDIPSSISGLIDGGFEIGNLLVIVFVSYFGSKLHRPKLIGIGCFIMGIGSILTALPHFFMGYYKYAKENDIGSLGNSTLTCFINQMTSPTGPSPEIVEKGCEKGLKSHMWIYVLMGNMLRGIGETPIVPLGISYLDDFAKEGHTSMHLGTLHTIAMIGPILGFIMSSVFAKIYVDVGYVDLNSVRITPNDARWVGAWWLSFIVNGLLCITSSIPFFFLPKIPKRSQEERKNSVSLHAPKTDEEKKHMTNLTKQEEQDPSNMTGFLRSLRSILTNEIYVIFLILTLLQVSGFIGSFTYLFKFIEQQFGRTASQANFLLGIITIPTMATAMFLGGYIVKKFKLTSVGIAKFVFFTSSVAYAFQFLYFPLLCENKPFAGLTLTYDGMNPVDSHIDVPLSYCNSDCSCDKNQWEPICGENGVTYISPCLAGCKSFRGDKKPNNTEFYDCSCISNSGNNSAHLGECPRYKCKTNYYFYIILQVTVSFFTAMGSPSLILILMKSVQPELKSLAMGFHSLIIRALGGILAPIYYGAFIDRTCIKWSVTSCGKRGACRLYNSRLFGFSYLGLNLALKTPPLFLYVVLIYFTKRKYKRNDNKTLENGRQFTDEGNPDSVNKNGYYCVPYDEQSNETPL |  | 14.9
